Test results: US4535161A, “Benzoquinolizine derivatives” (Daiichi Seiyaku Co., Ltd., priority 1982, dated 1985)
In brackets after ≈: the same amount, converted by molar mass. Structures can show the parent of a compound that is named as a salt. Where two headings read alike, the source gives them in different places.

Legend:
[1] = Acute toxicity (LD50) in mice (i.v.); conditions: mouse, in vivo, iv
S. epidermidis, 56500 = assay: Antibacterial activity (MIC), Table 1: S. epidermidis, 56500; assay type: cell-based; conditions: Staphylococcus epidermidis, Mueller-Hinton Broth, 10^6/ml, 37° C., 18 hours
Procedure: (§1) *Determined by the standard method of the Japan Society of Chemoterapy:
(§2) (MuellerHinton Broth medium), 10^6 /ml of bacteria were seeded and
(§3) incubated at 37° C. for 18 hours.

Ps. aeruginosa, 32234 = assay: Antibacterial activity (MIC), Table 1: Ps. aeruginosa, 32234; assay type: cell-based; conditions: Pseudomonas aeruginosa, Mueller-Hinton Broth, 10^6/ml, 37° C., 18 hours
Procedure: as §1, §2, §3

Ps. aeruginosa, 32122 = assay: Antibacterial activity (MIC), Table 1: Ps. aeruginosa, 32122; assay type: cell-based; conditions: Pseudomonas aeruginosa, Mueller-Hinton Broth, 10^6/ml, 37° C., 18 hours
Procedure: as §1, §2, §3

Str. pyogenes, G-36 = assay: Antibacterial activity (MIC), Table 1: Str. pyogenes, G-36; assay type: cell-based; conditions: Streptococcus pyogenes, G36, Mueller-Hinton Broth, 10^6/ml, 37° C., 18 hours
Procedure: as §1, §2, §3

Ent. cloacae, 03400 = assay: Antibacterial activity (MIC), Table 1: Ent. cloacae, 03400; assay type: cell-based
Procedure: as §1, §2, §3

Ps. aeruginosa, 32233 = assay: Antibacterial activity (MIC), Table 1: Ps. aeruginosa, 32233; assay type: cell-based; conditions: Pseudomonas aeruginosa, Mueller-Hinton Broth, 10^6/ml, 37° C., 18 hours
Procedure: as §1, §2, §3

Pr. vulgaris, 08602 = assay: Antibacterial activity (MIC), Table 1: Pr. vulgaris, 08602; assay type: cell-based; conditions: Proteus vulgaris, Mueller-Hinton Broth, 10^6/ml, 37° C., 18 hours
Procedure: as §1, §2, §3

E. coli, NIHJ = assay: Antibacterial activity (MIC), Table 1: E. coli, NIHJ; assay type: cell-based; conditions: Escherichia coli, Mueller-Hinton Broth, 10^6/ml, 37° C., 18 hours
Procedure: as §1, §2, §3

Pseudomonas aeruginosa = assay: Antibacterial activity against Pseudomonas aeruginosa (summary of Table 1); assay type: cell-based; conditions: in words
Procedure: as §1, §2, §3

Ser. marcescens, 10104 = assay: Antibacterial activity (MIC), Table 1: Ser. marcescens, 10104; assay type: cell-based; conditions: Serratia marcescens, Mueller-Hinton Broth, 10^6/ml, 37° C., 18 hours
Procedure: as §1, §2, §3

Ps. aeruginosa, 32121 = assay: Antibacterial activity (MIC), Table 1: Ps. aeruginosa, 32121; assay type: cell-based; conditions: Pseudomonas aeruginosa, Mueller-Hinton Broth, 10^6/ml, 37° C., 18 hours
Procedure: as §1, §2, §3

[2] = test system: Str. faecalis, ATCC-19433; assay: Antibacterial activity (MIC), Table 1: Str. faecalis, ATCC-19433; assay type: cell-based; conditions: Enterococcus faecalis, ATCC19433, Mueller-Hinton Broth, 10^6/ml, 37° C., 18 hours
Procedure: as §1, §2, §3

Ps. aeruginosa, 32104 = assay: Antibacterial activity (MIC), Table 1: Ps. aeruginosa, 32104; assay type: cell-based; conditions: Pseudomonas aeruginosa, Mueller-Hinton Broth, 10^6/ml, 37° C., 18 hours
Procedure: as §1, §2, §3

S. aureus, 209 P = assay: Antibacterial activity (MIC), Table 1: S. aureus, 209 P; assay type: cell-based; conditions: Staphylococcus aureus, Mueller-Hinton Broth, 10^6/ml, 37° C., 18 hours
Procedure: as §1, §2, §3

Pr. mirabilis, IFO-3849 = assay: Antibacterial activity (MIC), Table 1: Pr. mirabilis, IFO-3849; assay type: cell-based; conditions: Proteus mirabilis, IFO3849, Mueller-Hinton Broth, 10^6/ml, 37° C., 18 hours
Procedure: as §1, §2, §3

B. subtilis, ATCC-6633 = assay: Antibacterial activity (MIC), Table 1: B. subtilis, ATCC-6633; assay type: cell-based; conditions: Bacillus subtilis, ATCC6633, Mueller-Hinton Broth, 10^6/ml, 37° C., 18 hours
Procedure: as §1, §2, §3

K. pneumoniae, type 1 = assay: Antibacterial activity (MIC), Table 1: K. pneumoniae, type 1; assay type: cell-based; conditions: Klebsiella pneumoniae, TYPE1, Mueller-Hinton Broth, 10^6/ml, 37° C., 18 hours
Procedure: as §1, §2, §3

Sh. flexneri, 2a, 5503 = assay: Antibacterial activity (MIC), Table 1: Sh. flexneri, 2a, 5503; assay type: cell-based; conditions: Shigella flexneri, Mueller-Hinton Broth, 10^6/ml, 37° C., 18 hours
Procedure: as §1, §2, §3

Gram-positive bacteria = assay: Antibacterial activity against Gram-positive bacteria (summary of Table 1); assay type: cell-based; conditions: in words
Procedure: as §1, §2, §3

SMILES	MIC (S. epidermidis, 56500) [µg/mL]	MIC (Ps. aeruginosa, 32234) [µg/mL]	MIC (Ps. aeruginosa, 32122) [µg/mL]	MIC (Str. pyogenes, G-36) [µg/mL]	MIC (Ps. aeruginosa, 32233) [µg/mL]	MIC (Pr. vulgaris, 08602) [µg/mL]	MIC (E. coli, NIHJ) [µg/mL]	MIC (Ser. marcescens, 10104) [µg/mL]	MIC (Ps. aeruginosa, 32121) [µg/mL]	MIC [2] [µg/mL]	MIC (Ps. aeruginosa, 32104) [µg/mL]	MIC (S. aureus, 209 P) [µg/mL]	MIC (Pr. mirabilis, IFO-3849) [µg/mL]	MIC (B. subtilis, ATCC-6633) [µg/mL]	MIC (K. pneumoniae, type 1) [µg/mL]	MIC (Sh. flexneri, 2a, 5503) [µg/mL]	other results
C=C1CCc2c(N3CCC(N)C3)c(F)cc3c(=O)c(C(=O)O)cn1c23 (stereo not shown) [Ib, hydrochloric acid addition salt, 8-(3-amino--pyrrolidinyl)-9-fluoro-5-methylene-6,7-dihydro-1-oxo-1H,5H-benzo(ij)quinolizine-2-carboxylic acid]																	LD50 [1]: 252 mg/kg
C=C1CCc2c(N3CCC(N)C3)c(F)cc3c(=O)c(C(=O)O)cn1c23 (stereo not shown) [Ib, 8-(3-amino-1-pyrrolidinyl)-9-fluoro-5-methylene-1-oxo-6,7-dihydro-1H,5H-benzo(ij)quinolizine-2-carboxylic acid]	0.19 (≈ 0.553 µM)	0.05 (≈ 0.146 µM)	0.1 (≈ 0.291 µM)	0.39 (≈ 1.14 µM)	0.1 (≈ 0.291 µM)	0.025 (≈ 0.0728 µM)	0.0125 (≈ 0.0364 µM)	0.05 (≈ 0.146 µM)	0.025 (≈ 0.0728 µM)	0.39 (≈ 1.14 µM)	0.05 (≈ 0.146 µM)	0.1 (≈ 0.291 µM)	0.025 (≈ 0.0728 µM)	0.025 (≈ 0.0728 µM)	0.05 (≈ 0.146 µM)	0.0125 (≈ 0.0364 µM)	MIC (Ent. cloacae, 03400; Enterobacter cloacae, 03400, 18 h): 0.0125 µg/mL (≈ 0.0364 µM); antibacterial activity against Pseudomonas aeruginosa (Pseudomonas aeruginosa): very strong antibacterial activity
C=C1CCc2c(N3CCC(O)C3)c(F)cc3c(=O)c(C(=O)O)cn1c23 (stereo not shown) [Ia, 9-fluoro-8-(3-hydroxy-1-pyrrolidinyl)-5-methylene-1-oxo-6,7-dihydro-1H,5H-benzo(ij)quinolizine-2-carboxylic acid]	0.1 (≈ 0.29 µM)	0.39 (≈ 1.13 µM)	0.39 (≈ 1.13 µM)	0.39 (≈ 1.13 µM)	0.78 (≈ 2.27 µM)	0.05 (≈ 0.145 µM)	0.0125 (≈ 0.0363 µM)	0.1 (≈ 0.29 µM)	0.1 (≈ 0.29 µM)	0.39 (≈ 1.13 µM)	0.31 (≈ 0.9 µM)	0.05 (≈ 0.145 µM)	0.1 (≈ 0.29 µM)	≤ 0.0063	0.1 (≈ 0.29 µM)	0.0125 (≈ 0.0363 µM)	MIC (Ent. cloacae, 03400; Enterobacter cloacae, Ent. cloacae, 03400, Mueller-Hinton Broth, 10^6/ml, 37° C., 18 hours, read-out: MIC): 0.05 µg/mL (≈ 0.145 µM); antibacterial activity against Gram-positive bacteria (Gram-positive bacteria): very strong antibacterial activity
